Measured values taken from publication PMC7182039 (Journal of medicinal chemistry, 2020).

Experiments:
[1] = Kinetic solubility by nephelometry; assay type: physicochemical; conditions: kinetic solubility, 1% DMSO, 30 min; for sol2.0: 0.01 M HCl (approx. pH 2.0); for sol6.5: pH 6.5 phosphate buffer
[2] = In vitro metabolic stability in human liver microsomes; assay type: in vitro ADME; conditions: for h CLint: 37 °C, 0.4 mg/mL protein, NADPH
[3] = In vitro metabolic stability in mouse liver microsomes; assay type: in vitro ADME; conditions: for m CLint: 37 °C, 0.4 mg/mL protein, NADPH

Row | SMILES | sol2.0 [1] | sol6.5 [1] | h CLint [2] | m CLint [3] | conversion to 2 in human liver microsomes [2] | conversion to 2 in mouse liver microsomes [3]
1 | O=C(O)c1cccc([C@H]2CC[C@]3(CC2)OOC2(O3)C3CC4CC(C3)CC2C4)c1 (stereo partly drawn) [Compound 4] | <1.6/<1.6 μg/mL | <1.6/<1.6 μg/mL | 12 μL/(min mg) protein | 30 μL/(min mg) protein | – | –
2 | O=C(O)c1cc([C@H]2CC[C@]3(CC2)OOC2(O3)C3CC4CC(C3)CC2C4)ccc1O (stereo partly drawn) [Compound 5, 5-(Dispiro[adamantane-2,3′ -[1,2,4]trioxolane-5′,1″-cyclohexan]-4″-yl)-2-hydroxybenzoic acid] | – | – | 108 μL/(min mg) protein | 20 μL/(min mg) protein | – | –
3 | O=C(O)COc1ccc([C@H]2CC[C@]3(CC2)OOC2(O3)C3CC4CC(C3)CC2C4)cc1C(=O)O (stereo partly drawn) [Compound 6, cis-Adamantane-2-spiro-3′−8′-[3-carboxy-4-(carboxymethoxy)-phenyl]-1′,2′,4′-trioxaspiro[4.5]decane] | – | – | < 7 μL/(min mg) protein | 8 μL/(min mg) protein | – | –
4 | O=C(O)COc1c(Cl)cc([C@H]2CC[C@]3(CC2)OOC2(O3)C3CC4CC(C3)CC2C4)cc1Cl (stereo partly drawn) [Compound 8, cis-Adamantane-2-spiro-3′ −8′-[3,5-dichloro-4-(carboxymethoxy)phenyl]-1′,2′,4′-trioxaspiro[4.5]decan] | – | 3.1 to 6.3 µg/mL | – | – | – | –
5 | O=C(O)CCCOc1ccc([C@H]2CC[C@]3(CC2)OOC2(O3)C3CC4CC(C3)CC2C4)cc1 (stereo partly drawn) [Compound 9, cis-Adamantane-2-spiro-3′−8′-[4-(carboxypropoxy)-phenyl]-1′,2′,4′-trioxaspiro[4.5]decane] | – | – | < 7 μL/(min mg) protein | 8 μL/(min mg) protein | – | –
6 | O=C(O)CCCCOc1ccc([C@H]2CC[C@]3(CC2)OOC2(O3)C3CC4CC(C3)CC2C4)cc1 (stereo partly drawn) [Compound 10, cis-Adamantane-2-spiro-3′−8′-[4-(carboxybutoxy)phenyl]-1′,2′,4′-trioxaspiro[4.5]decan] | <1.6/<1.6 μg/mL | <1.6/<1.6 μg/mL | < 7 μL/(min mg) protein | 13 μL/(min mg) protein | – | –
7 | CC(C)(Oc1ccc([C@H]2CC[C@]3(CC2)OOC2(O3)C3CC4CC(C3)CC2C4)cc1)C(=O)O (stereo partly drawn) [Compound 11] | – | 3.1 to 6.3 µg/mL | <7/7 μL/(min mg) protein | <7/7 μL/(min mg) protein | – | –
8 | CCOC(=O)COc1ccc([C@H]2CC[C@]3(CC2)OOC2(O3)C3CC4CC(C3)CC2C4)cc1 (stereo partly drawn) [Compound 12] | – | – | – | – | rapidly converted to 2 | rapidly converted to 2
9 | CS(=O)(=O)NC(=O)COc1ccc([C@H]2CC[C@]3(CC2)OOC2(O3)C3CC4CC(C3)CC2C4)cc1 (stereo partly drawn) [Compound 13, cis-Adamantane-2-spiro-3′−8′-[4-[2-[methylsulfonamino]-2-oxoethoxy]phenyl]-1′,2′,4′-trioxaspiro[4.5]decane] | – | 6.3 to 12.5 µg/mL | < 7 μL/(min mg) protein | 12 μL/(min mg) protein | – | –
10 | O=C([O-])C1CCN(CCOc2ccc([C@H]3CC[C@]4(CC3)OOC3(O4)C4CC5CC(C4)CC3C5)cc2)CC1.[Na+] (stereo partly drawn) [Compound 15] | 3.1 to 6.3 µg/mL | < 1.6 µg/mL | < 7 μL/(min mg) protein | 9 μL/(min mg) protein | – | –
11 | CS(=O)(=O)O.O=C(O)C1CN(Cc2ccc([C@H]3CC[C@]4(CC3)OOC3(O4)C4CC5CC(C4)CC3C5)cc2)C1 (stereo partly drawn) [Compound 18, cis-Adamantane-2-spiro-3′−8′-[4-((3-(carbonyi)azetidin-1-yl)-methyi)phenyi]-1′,2′,4′-trioxaspiro[4.5]decane mesyiate] | 6.3 to 12.5 µg/mL | < 1.6 µg/mL | 7 μL/(min mg) protein | 10 μL/(min mg) protein | – | –
12 | O=C(O)COc1ccc([C@H]2CC[C@]3(CC2)OOC2(O3)C3CC4CC2CC(C3)C4(F)F)cc1 (stereo partly drawn) [Compound 19, cis-6,6-Difluoroadamantane-2-spiro-3′−8′-[4-(carboxymethoxy)-phenyl]-1′,2′,4′ -trioxaspiro[4.5]decane] | – | 12.5 to 25 µg/mL | 23 μL/(min mg) protein | 130 μL/(min mg) protein | – | –
13 | O=C(O)COc1ccc([C@H]2CC[C@]3(CC2)OOC2(O3)C3CC4CC2CC(C3)C4=O)cc1 (stereo partly drawn) [Compound 20, cis-6-Oxoadamantane-2-spiro-3′−8′-[4-(carboxymethoxy)-phenyl]-1′,2′,4′-trioxaspiro[4.5]decane] | – | 50 to 100 µg/mL | – | – | – | –
14 | O=C(O)COc1ccc([C@H]2CC[C@]3(CC2)OOC2(O3)C3CC4CC2CC(C3)C4O)cc1 (stereo partly drawn) [Compound 21, cis-6-Hydroxyadamantane-2-spiro-3′−8′-[4-(carboxymethoxy)-phenyl]-1′,2′,4′-trioxaspiro[4.5]decane] | – | 25 to 50 µg/mL | <7/<7 μL/(min mg) protein | <7/<7 μL/(min mg) protein | – | –
15 | CC(=O)NC1C2CC3CC1CC(C2)C31OO[C@]2(CC[C@@H](c3ccc(OCC(=O)O)cc3)CC2)O1 (stereo partly drawn) [Compound 22, cis-6-Acetamidoadamantane-2-spiro-3′−8′-[4-(carboxymethoxy)phenyl]-1′,2′,4′-trioxaspiro[4.5]decane] | 3.1 to 6.3 µg/mL | 12.5 to 25 µg/mL | 10 μL/(min mg) protein | < 7 μL/(min mg) protein | – | –
16 | CS(=O)(=O)O.NC1C2CC3CC1CC(C2)C31OO[C@]2(CC[C@@H](c3ccc(OCC(=O)O)cc3)CC2)O1 (stereo partly drawn) [Compound 23, cis-6-Aminoadamantane-2-spiro-3′−8′-[4-(carboxymethoxy)-phenyl]-1′,2′,4′-trioxaspiro[4.5]decane mesylate] | 6.3 to 12.5 µg/mL | < 1.6 µg/mL | 13 μL/(min mg) protein | 8 μL/(min mg) protein | – | –
17 | CS(=O)(=O)O.O=C(O)COc1ccc([C@H]2CC[C@]3(CC2)OOC2(O3)C3CC4CC2CC(C3)N4)cc1 (stereo partly drawn) [Compound 24, cis-6-Azaadamantane-2-spiro-3′−8 ′-[4-(carboxymethoxy)-phenyl]-1′,2′,4′-trioxaspiro[4.5]decane mesylate] | 3.1 to 6.3 µg/mL | < 1.6 µg/mL | 35 μL/(min mg) protein | 27 μL/(min mg) protein | – | –
18 | CS(=O)(=O)O.CS(=O)(=O)O.O=C(O)CNCc1ccc([C@H]2CC[C@]3(CC2)OOC2(O3)C3CC4CC2CC(C3)N4)cc1 (stereo partly drawn) [Compound 25, cis-6-Azaadamantane-2-spiro-3′−8′-[4-[[(carboxymethyl)-amino]methyl]phenyl]-1′,2′,4′-trioxaspiro[4.5]decane mesylate] | > 100 µg/mL | 50 to 100 µg/mL | <7/<7 μL/(min mg) protein | <7/<7 μL/(min mg) protein | – | –
